Measured values published in publication PMC9499506, “TNF-α and IL-1β Modulate Blood-Brain Barrier Permeability and Decrease Amyloid-β Peptide Efflux in a Human Blood-Brain Barrier Model” (International Journal of Molecular Sciences, 2022).

Experiments:
BLECs [1] = assay: RT-qPCR of junctional protein mRNA in BLECs; assay type: cell-based, human; conditions: normalized to cyclophilin A, 10 ng·mL^−1, 24 h; for VE-cadherin mRNA level versus control: ΔΔCt
Description: Each condition was studied in triplicate.
BLECs were washed twice with cold RH buffer, then lysed using RLT lysis buffer (Qiagen, Les Ulis, France). The cell lysates were extracted according to the manufacturer’s instructions “Qiagen RNeasy Mini kit”. Briefly, a volume of cell lysates was mixed with a volume of 70% (v/v) ethanol and placed in a column (Rneasy Mini kit, Qiagen, Les Ulis, France). A first centrifugation was performed to adsorb the RNAs to the column. A series of two rinses with buffer RW1 and a centrifugation (10.000 rpm, 30 s) were performed. Samples were treated with DNase in its RDD buffer for 20 min. Then, another succession of rinses (one with buffer RW1 and two with buffer RPE) and centrifugation (10.000 rpm, 30 s) were performed. Finally, water (RNAse Free) was added to the column to elute the RNAs by centrifugation (13.000 rpm, 2 min at 20 °C). The amount of extracted mRNAs was assayed by spectrophotometry (Synergy H1, Biotek, Colmar, France). Absorbances at 280 nm (proteins) and 260 nm (nucleic acids) were performed. The mRNA concentration was determined from the Beer-Lambert law and the mRNA purity of the sample was assessed with the Absorbance 260 nm/Absorbance 280 nm ratio. This ratio must be close to 2.1 to consider the sample to be with high purity. The mRNA samples were then stored at −80 °C.
Reverse transcription (RT) was performed on the samples containing the extracted mRNAs to obtain cDNAs. A total of 250 ng of mRNA was reverse-transcribed using iScriptTM reverse Transcription Supermix 5X (Biorad, Munich, Germany), containing reverse transcriptase, RNAse inhibitors, RNAse H, dNTPs (nucleoside triphosphates), oligonucleotides (dTs) (deoxy-thymine repeats) and random primers (hexamers of dNTPs randomly binding to mRNAs) and MgCl2). To each microtube, a volume of water (RNAse free) was added to obtain a final volume of 20 µL, then a reverse transcription cycle was performed in the thermal cycler (MJ Research): 5 min at 25 °C (hybridization), 30 min at 42 °C (reverse transcription) and 5 min at 85 °C (reverse transcription inactivation). The cDNA samples were then stored at −20 °C. For each reverse transcription and for each condition, an internal control was performed by adding iScriptTM No-RT control Supermix 5X (Biorad, Munich, Germany), a solution without the reverse transcriptase enzyme (NRT), instead of iScriptTM reverse Transcription Supermix 5X.
The qPCR was performed on a 96-well plate where each sample was deposited in triplicate. To perform qPCR, human-specific primer pairs were drawn for each gene of interest (Table 2).
An efficiency test and a melting curve were performed for each pair of primers used using the CFX Manager software (Biorad, Munich, Germany) allowing for the specificity and efficiency of the primers to be checked. A qPCR of the cDNAs obtained by RT-PCR was performed using the specific primers and a SsoFast^TM Evagreen SuperMix (Biorad, Munich, Germany) containing DNA polymerase, its cofactors, dNTPs and Evagreen® (a fluorochrome that binds to DNA during elongation). The amplification was carried out for 40 cycles with a hybridization temperature of 60 °C. The reaction was performed in a CFX96 Real-Time System thermal cycler (Biorad, Munich, Germany). Gene expression levels were assessed using the ΔΔCt method and normalized to a reference gene, cyclophilin A. The data were then plotted as a percentage against the control condition. Two controls were performed per primer pair: an NRT and a primer hybridization control (NTC), where the sample containing the cDNAs is replaced with water.

BLECs [2] = assay: Immunostaining of tight junction proteins in BLECs (localization, area fraction staining); assay type: cell-based, human; conditions: 10 ng·mL^−1, 24 h; for BLEC morphology and TJ protein localization: immunofluorescence of ZO-1, occludin, claudin-3, claudin-5
Description: After 24 h of treatment with or without proinflammatory cytokines, BLECs were fixed and permeabilized, as described in Table 1. Then, a blocking step was performed with Sea Block Blocking Buffer (#37527 from Thermofisher, Rockford, IL, USA) for 30 min. BLECs were incubated for 1 h with the primary antibody in phosphate buffered saline, calcium-magnesium-free (PBS-CMF; 0.2 g·L^−1 KH2PO4, 8.0 g·L^−1 NaCl, 2.87 g·L^−1 Na2HPO4–12H2O, and 0.2 g·L^−1 KCl) with 2% (v/v) normal goat serum (NGS) at room temperature (RT) against targeted proteins, as described in Table 1.
After three washes with PBS-CMF supplemented with 2% NGS, BLECs were incubated with secondary polyclonal antibody (goat anti-rabbit Alexa 568, A11036, Molecular Probes, Eugene, OR, USA) diluted 1:500 in PBS-CMF supplemented with 2% NGS in the dark for 30 min at RT. Then, ProLong™ Diamond Antifade Mountant with DAPI (#P36962, Invitrogen) was used for nuclei staining and mounting. The stained slides were conserved in the fridge. The staining images were taken using a Leica microscope (DMRD; Leica Microsystems, Wetzlar, Germany) and processed using ImageJ software.
Claudin-3 and claudin-5 area fraction staining were subsequently quantified within the BLECs using ImageJ software. Staining images from the same experiment were taken with the same threshold according to the staining, and could thus be compared with each other. Due to the absence of BLEC delineation, the total fraction area staining for each image was thus quantified and normalized by the number of nuclei. Studies were performed with at least three independent experiments and at least three randomized staining images per experiment containing around 50 BLECs each.

[3] = immunofluorescence, ImageJ, normalized by number of nuclei

Substance	decrease of ZO-1 mRNA level compared to control (BLECs [1])	decrease of claudin-3 mRNA level compared to control (BLECs [1])	decrease of occludin mRNA level compared to control (BLECs [1])	decrease of tricellulin mRNA level compared to control (BLECs [1])	increase of claudin-5 mRNA expression compared to control (BLECs [1])	VE-cadherin mRNA level versus control (BLECs [1])	BLEC morphology and TJ protein localization (BLECs [2])	increase of claudin-5 area fraction staining compared to IL-1β treatment (BLECs [2]; [3])	increase of claudin-5 area fraction staining compared to control condition (BLECs [2]; [3])	claudin-3 area fraction staining, increase compared to IL-1β treatment (BLECs [2]; immunofluorescence, ImageJ, normalized by number of nuclei, printed as 'at')
interleukin-1β [IL-1β]	48.1%	81.3%	64.0%	62.8%	48.1%	lower	did not cause changes in BLEC morphology and TJ protein localization	–	–	–
tumor necrosis factor-α [TNF-α]	–	61.8%	66.3%	68.1%	139.4%	not significantly different	induces a change in BLEC morphology and an increase of claudin-3 and claudin-5 cytoplasmic staining	162.1%	161.8%	129.8%
